{"source": "ChEMBL document CHEMBL3763120", "about": "“Phenyl Benzenesulfonylhydrazides Exhibit Selective Indoleamine 2,3-Dioxygenase Inhibition with Potent in Vivo Pharmacodynamic Activity and Antitumor Efficacy” (J Med Chem, 2016)", "key": {"[1]": {"target": "Gamma-aminobutyric acid type B receptor subunit 1 (Homo sapiens) (UniProt Q9UBS5)", "sequence (Q9UBS5 whole entry)": "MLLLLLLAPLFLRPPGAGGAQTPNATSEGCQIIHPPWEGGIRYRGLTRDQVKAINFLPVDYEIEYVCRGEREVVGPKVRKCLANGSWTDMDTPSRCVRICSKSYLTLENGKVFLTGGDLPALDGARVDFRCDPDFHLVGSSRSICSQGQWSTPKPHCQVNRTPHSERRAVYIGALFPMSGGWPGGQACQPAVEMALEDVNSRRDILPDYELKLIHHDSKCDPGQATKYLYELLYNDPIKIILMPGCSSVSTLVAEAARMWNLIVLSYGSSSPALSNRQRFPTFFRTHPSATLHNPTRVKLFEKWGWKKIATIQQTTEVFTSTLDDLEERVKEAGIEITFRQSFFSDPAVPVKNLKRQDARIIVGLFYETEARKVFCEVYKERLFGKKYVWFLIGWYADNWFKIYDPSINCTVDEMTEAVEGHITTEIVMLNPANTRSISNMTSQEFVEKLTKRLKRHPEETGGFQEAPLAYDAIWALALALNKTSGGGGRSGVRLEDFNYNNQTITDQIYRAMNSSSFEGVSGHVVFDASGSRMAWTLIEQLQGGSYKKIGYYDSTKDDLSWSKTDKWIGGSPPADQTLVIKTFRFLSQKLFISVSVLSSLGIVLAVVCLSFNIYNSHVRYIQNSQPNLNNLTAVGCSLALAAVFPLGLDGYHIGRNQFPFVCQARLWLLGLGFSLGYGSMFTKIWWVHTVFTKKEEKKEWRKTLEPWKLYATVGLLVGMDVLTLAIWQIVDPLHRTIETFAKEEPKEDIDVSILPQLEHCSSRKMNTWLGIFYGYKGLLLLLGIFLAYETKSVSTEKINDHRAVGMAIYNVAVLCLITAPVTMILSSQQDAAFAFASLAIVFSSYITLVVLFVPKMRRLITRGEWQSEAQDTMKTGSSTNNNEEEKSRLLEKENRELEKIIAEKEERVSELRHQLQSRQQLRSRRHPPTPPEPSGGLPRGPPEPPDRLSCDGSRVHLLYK", "assay": "Inhibition of GABAB1A receptor (unknown origin) at 10 uM"}, "[2]": {"assay": "Half life in Sprague-Dawley rat plasma at 2 mg/kg, iv by LC-MS/MS analysis", "format": "ADME, organism-based", "settings": "Sprague-Dawley, plasma"}}}
{"smiles": "O=C1Cc2cc(S(=O)(=O)NNc3ccc(Br)cc3)ccc2N1", "values": [{"measurement": "inhibition", "setting": "[1]", "value": "< 50", "unit": "%"}, {"measurement": "half-life", "setting": "[2]", "value": 2.3, "unit": "h"}]}
